In the NIST ThermoML archive (doi:10.1021/je9009283):
Numbers after ± are expanded uncertainties.

Assays:
[1] = for Normal melting temperature: Crystal; for Normal melting temperature / Glass transition temperature: DTA; for mass density: 293.1 K, 101.33 kPa, Liquid, Pycnometric method
[2] = Molar enthalpy of transition or fusion; conditions: Crystal; DSC
[3] = refractive index (Na D-line) (dimensionless); conditions: 293.1 K; 101.33 kPa; Liquid; Standard Abbe refractometry

Structure (SMILES)	Normal melting temperature [1]	Molar enthalpy of transition or fusion [2]	mass density [1]	Glass transition temperature [1]	refractive index [3]
CCCC[n+]1cc(C)cc(C)c1C.O=S(=O)([O-])C(F)(F)F	74.0 ± 2 °C	5.01 ± 0.16 kcal/mol	–	–	–
CCCC[n+]1cc(C)cc(C)c1.O=S(=O)([N-]S(=O)(=O)C(F)(F)F)C(F)(F)F	–	–	1390 ± 20 kg/m3	-73.0 ± 2 °C	1.4559 ± 0.0016
CCCCCCCC[n+]1cc(C)cc(C)c1.O=S(=O)([O-])C(F)(F)F	76.0 ± 2 °C	5.93 ± 0.182 kcal/mol	–	–	–
CCCC[n+]1cccc(C)c1C.O=S(=O)([N-]S(=O)(=O)C(F)(F)F)C(F)(F)F	–	–	1370 ± 20 kg/m3	-81.0 ± 2 °C	1.4497 ± 0.0016
CCCCCCCC[n+]1cc(CC)ccc1C.[I-] [5-ethyl-2-methyl-1-octylpyridinium iodide]	87.0 ± 2 °C	7.38 ± 0.217 kcal/mol	–	-33.0 ± 2 °C	–
CCCC[n+]1cc(CC)ccc1C.O=S(=O)([N-]S(=O)(=O)C(F)(F)F)C(F)(F)F	–	–	1370 ± 20 kg/m3	-81.0 ± 2 °C	1.4552 ± 0.0016
CCCCCCCC[n+]1cc(C)cc(C)c1.N#C[S-] [3,5-dimethyl-1-octylpyridinium thiocyanate]	-38.0 ± 2 °C	1.53 ± 0.086 kcal/mol	1000 ± 20 kg/m3	-74.0 ± 2 °C	1.5415 ± 0.0016
CCCC[n+]1cc(C)cc(C)c1.N#C[N-]C#N [1-butyl-3,5-dimethylpyridinium dicyanamide]	-1.0 ± 2 °C	0.92 ± 0.0765 kcal/mol	–	-80.0 ± 2 °C	1.5278 ± 0.0016
CCCCCCCC[n+]1cccc(C)c1C.O=S(=O)([N-]S(=O)(=O)C(F)(F)F)C(F)(F)F	–	–	1290 ± 20 kg/m3	-70.0 ± 2 °C	1.4571 ± 0.01
CCCC[n+]1cccc(C)c1C.N#C[N-]C#N [1-butyl-2,3-dimethylpyridinium dicyanamide]	–	–	–	-72.0 ± 2 °C	1.5403 ± 0.0016
CCCCCCCC[n+]1cccc(C)c1C.N#C[S-] [2,3-dimethyl-1-octylpyridinium thiocyanate]	–	–	1020 ± 20 kg/m3	-65.0 ± 2 °C	1.5489 ± 0.0016
CCCCCCCC[n+]1cc(CC)ccc1C.N#C[N-]C#N [5-ethyl-2-methyl-1-octylpyridinium dicyanamide]	53.0 ± 2 °C	–	–	-59.0 ± 2 °C	–
CCCC[n+]1cc(C)cc(C)c1.N#C[S-] [1-butyl-3,5-dimethylpyridinium thiocyanate]	13.0 ± 2 °C	3.83 ± 0.134 kcal/mol	–	-57.0 ± 2 °C	–
CCCCCCCC[n+]1cc(C)cc(C)c1C.[I-] [2,3,5-trimethyl-1-octylpyridinium iodide]	–	–	–	-31.0 ± 2 °C	1.5776 ± 0.0016
CCCCCCCC[n+]1cc(CC)ccc1C.O=S(=O)([N-]S(=O)(=O)C(F)(F)F)C(F)(F)F	–	–	1280 ± 20 kg/m3	-78.0 ± 2 °C	–
CCCCCCCC[n+]1cc(C)cc(C)c1.O=S(=O)([N-]S(=O)(=O)C(F)(F)F)C(F)(F)F	–	–	1280 ± 20 kg/m3	-78.0 ± 2 °C	1.4526 ± 0.01
CCCCCCCC[n+]1cc(C)cc(C)c1C.N#C[S-] [2,3,5-trimethyl-1-octylpyridinium thiocyanate]	20.0 ± 2 °C	3.5 ± 0.127 kcal/mol	–	-58.0 ± 2 °C	–
CCCCCCCC[n+]1cc(C)cc(C)c1.F[B-](F)(F)F [3,5-dimethyl-1-octylpyridinium tetrafluoroborate]	56.0 ± 2 °C	6.71 ± 0.201 kcal/mol	–	–	–
CCCC[n+]1cc(C)cc(C)c1.O=S(=O)([O-])C(F)(F)F	91.0 ± 2 °C	6.81 ± 0.203 kcal/mol	1390 ± 20 kg/m3	–	–
CCCCCCCC[n+]1cc(C)cc(C)c1C.O=S(=O)([O-])C(F)(F)F	–	–	–	-56.0 ± 2 °C	–
CCCCCCCC[n+]1cc(C)cc(C)c1C.O=S(=O)([N-]S(=O)(=O)C(F)(F)F)C(F)(F)F	–	–	1280 ± 20 kg/m3	-72.0 ± 2 °C	1.4617 ± 0.0016
CCCCCCCC[n+]1cc(C)cc(C)c1.[I-] [3,5-dimethyl-1-octylpyridinium iodide]	82.0 ± 2 °C	6.08 ± 0.186 kcal/mol	–	-41.0 ± 2 °C	–
CCCC[n+]1cccc(C)c1C.O=S(=O)([O-])C(F)(F)F	17.0 ± 2 °C	4.03 ± 0.139 kcal/mol	1370 ± 20 kg/m3	-69.0 ± 2 °C	1.4748 ± 0.0016
CCCCCCCC[n+]1cccc(C)c1C.O=S(=O)([O-])C(F)(F)F	–	–	1180 ± 20 kg/m3	-63.0 ± 2 °C	1.4725 ± 0.0016
CCCC[n+]1cc(C)cc(C)c1C.O=S(=O)([N-]S(=O)(=O)C(F)(F)F)C(F)(F)F	–	–	1370 ± 20 kg/m3	-74.0 ± 2 °C	1.4583 ± 0.0016
CCCCCCCC[n+]1cc(C)cc(C)c1.N#C[N-]C#N [3,5-dimethyl-1-octylpyridinium dicyanamide]	–	–	1000 ± 20 kg/m3	-78.0 ± 2 °C	1.5196 ± 0.0016
